These results are taken from patent publication US20070191315A1, “Method for administering ibandronate” (priority 2006, published 2007).

The test system of the test is metastatic bone pain. The test can be described thus: Multicenter, randomized, active-controlled, double-blind trial of pain (BPI worst/average pain scales). The test is classed as in vivo. Particulars: patients; ibandronic acid 6 mg IV over 15 min on Days 1, 2 and 3, then 50 mg orally daily from Day 22; 24 weeks; compared to placebo treatment. The protocol:
A multicenter, randomized, active-controlled, double-blind, parallel groups trial is conducted. Patients are centrally randomized via an interactive voice response system (IVRS) to treatment either with ibandronic acid or zoledronic acid. Study treatment begins within 96 hours of randomization. Treatment continues for 24 weeks. Patients record their pain on the WORST PAIN and the AVERAGE PAIN scales of the BPI, as well as daily analgesic use, on a nightly basis. Patients record the degree to which their pain interferes with normal functioning and any opioid side-effects weekly. WHO Performance Status, quality of life based on the EORTC QLQ-C30 instrument and quality of life based on the FACT-BP, an instrument specifically designed to measure quality of life in patients with bone pain are recorded at Day 8 and Weeks 6, 12, 18 and 24 of the trial. Patients have skeletal surveys performed at Baseline and at Weeks 12 and 24 as part of the monitoring of SREs. Patients randomized to the ibandronic acid arm receive ibandronic acid 6 mg intravenously over 15 minutes on Days 1, 2 and 3 of the trial, followed by ibandronic acid 50 mg orally daily beginning on Day 22 of the study. Patients also receive a placebo infusion every 3-4 weeks, depending on the underlying chemotherapy regimens patients may be receiving. Patients who are not receiving chemotherapy receive placebo infusions every 3 weeks. […]

In the case of `CCCCCN(C)CCC(O)(P(=O)(O)O)P(=O)(O)O` [ibandronate, 3-(N-methyl-N-pentyl)amino-1-hydroxypropane-1,1-diphosphonic acid], the pain scores result is “significantly lower pain scores”.
